Measured values from paper PMC10309634, “Computer simulation approach to the identification of visfatin-derived angiogenic peptides” (PLOS ONE, 2023).

Columns and labels:
Assay type in all cases: cell-based, human
HUVECs [1] = experiment: In vitro wound healing migration assay; conditions: 18 h, scratch wound, compared to the control group
Protocol: HUVECs were seeded in 24-well plates (SPL) at a density of 2×10^5 cells and incubated in EGM medium supplemented with EGM-Supplement Mix® containing 1% FBS overnight. Cells were scratched using a P200 pipette tip to induce a wound. Subsequently, then b-FGF (25ng/ml), visfatin (1000 ng/ml), and visfatin-derived peptides (0.5μM and 2.0μM) were added and the culture was maintained for 18 hours to allow the cells to migrate. The migration patterns were observed using a phase-contrast microscope and images were captured. The wound diameters were photographed at 16–24 hours. Wound closure was determined using optical microscopy at 40× magnification. Migration was quantified by counting the number of cells that had moved beyond the reference line.

HUVECs [2] = experiment: In vitro trans-well invasion assay; conditions: 24 hours, Matrigel-coated trans-well, compared to the control and visfatin-treated groups
Protocol: The invasion capacity of the cells was determined using a 24-well trans-well system. The upper side of the trans-well membrane was coated with 1 mg/mL Matrigel at 10 μL/well at room temperature for 1 hour. The EGM-2 medium (0.5 ml)was added to the lower part of trans-well chamber. HUVECs (2×10^4 cells) and EGM medium (0.1 ml) were placed on the upper compartment of the trans-well. And then b-FGF (25ng/ml), visfatin (1000 ng/ml), and visfatin-derived peptides (0.5μM and 2.0μM) were added to the upper compartment of the trans-well. Cells were incubated at 37°C and 5% CO2 for 24 hours, fixed with methanol, and stained with hematoxylin and eosin. The cells on the upper surface of the membrane were removed by wiping with a cotton swab. Cell invasion was determined by counting the number of whole cells in a single filter using optical microscopy at 40× magnification. Each sample was assayed in duplicate, and independent experiments were repeated three times.

visfatin mRNA expression = experiment: RT-qPCR of visfatin mRNA in HUVECs; conditions: 24 hours, RT-qPCR vs GAPDH, compared to the control group
Protocol: (§1) After treating HUVECs with visfatin-derived peptides for 24 hours, the total RNA was isolated from the cultured HUVECs using the Tri-RNA reagent (Favorgen Biotech Corp., Kaohsiung, Taiwan) according to the manufacturer’s instructions. cDNA was synthesized from 1 μg of total RNA using the iScript^TM cDNA Synthesis Kit (Bio-Rad Laboratories, Inc., Hercules, CA, USA). The mRNA expression levels of VEGF and visfatin were carried out using Applied Biosystems 7500 software (Applied Biosystems Inc., Waltham, MA, USA). Real-time PCR was performed using SYBR Green Q-PCR Master Mix (Samjung Bio Science, Daejeon, South Korea). The reaction conditions were as follows: initial denaturation at 95°C for 5 min, amplification at 95°C for 15 sec, and at 60°C for 1 min. All PCR amplifications were performed for 40 cycles. The specific primers used were as follows: 5’-[…]-3’ (forward) and 5’-GTG ATGGCATGGACTGTGGT-3’ (reverse) for glyceraldehyde-3-phosphate dehydrogenase (GAPDH); 5’-GGAGG GTGACGGGGTGAAGG-3’ (forward) and 5’-[…]-3’ (reverse) for visfatin; and 5’-[…]-3’ (forward) and 5’-[…]-3’ (reverse) for VEGF-A. The relative changes in the gene expression were determined using the 2^-ΔΔCt method and the results were normalized to the expression of GAPDH.

HUVECs [3] = experiment: In vitro tube formation assay on Matrigel; conditions: 4 hours on Matrigel
Protocol: HUVECs (2×10^4 cells/well) were seeded on a layer of polymerized Matrigel and treated with or without visfatin-derived peptides. The Matrigel culture was incubated at 37°C in the EGM supplemented with EGM-Supplement Mix® containing 1% FBS. After 4 hours, changes in the cell morphology were observed using a phase-contrast microscope and photographed at 40× magnification. Each sample was assayed in duplicate, and independent experiments were repeated three times. Angiogenesis was analyzed with ImageJ software using an angiogenesis analyzer (Bethesda, MD, USA).

HUVECs [4] = experiment: MTT cell cytotoxicity assay; conditions: MTT, 0.1, 0.5, 1.0 and 2.0 μM, 24 hours, triplicate
Protocol: HUVECs were grown in EGM-2 supplemented with an EGM-2 Supplement Mix® (PromoCell) containing 2% FBS at a density of 1×10^4 cells in 96-well plates (SPL Inc., Gyeonggido, Korea). After 24 hours, the cells were treated with 1000ng/ml visfatin (Adipogen Life Science) and various concentrations of visfatin-derived peptides (0.1, 0.5, 1.0, and 2.0 μM), and then incubated overnights in an atmosphere of 5% CO2. The 3-(4,5-Dimethylthiazol-2-yl)-2,5-diphenyltetrazolium bromide (MTT) assay reagents (Sigma-Aldrich, St. Louis, MO, USA) were as added directly to each well to a final concentration of 0.5 mg/ml. After 4 hours, the medium was removed, the formazan crystals formed in the cells were dissolved in DMSO, and the absorbance of the formazan solution was measured using a Synergy HTX Multi-Mode Reader (BIO-TEK, Vermont, USA) with a 540 nm filter. Each sample was assayed in triplicate.

VEGF-A mRNA expression = experiment: RT-qPCR of VEGF-A mRNA in HUVECs; conditions: 24 hours, RT-qPCR vs GAPDH, compared to the control group
Protocol: as §1

Substance | increase in cell migration (HUVECs [1]; 2.0 μM) | increase of cell invasion (HUVECs [2]; 2.0 μM) | mRNA expression of visfatin (visfatin mRNA expression; 0.5 μM) | mRNA expression of visfatin (visfatin mRNA expression; 2.0 μM) | number of master junctions (HUVECs [3]; 0.5 μM, vs control) | number of meshes (HUVECs [3]; 0.5 μM, vs control) | cytotoxic effect / viability of HUVECs (HUVECs [4]) | mRNA expression of VEGF-A (VEGF-A mRNA expression; 0.5 μM) | mRNA expression of VEGF-A (VEGF-A mRNA expression; 2.0 μM) | increase in cell migration (HUVECs [1]; 0.5 μM) | increase of cell invasion (HUVECs [2]; 0.5 μM) | number of master junctions (HUVECs [3]; 2.0 μM, vs control) | number of meshes (HUVECs [3]; positive controls, compared to the control group)
EYKLHDFGYRGV [Peptide-2, visfatin-derived peptide … (12AA), synthesised by GL Biochem] | two-fold increase | more than two-fold | significantly increased | significantly increased | significantly increased | significantly increased | no cytotoxic effect | significantly increased | remarkably increased | – | – | – | –
LEYKLHDFGY [Peptide-1, visfatin-derived peptide […]; (10AA), synthesised by GL Biochem] | – | – | significantly increased | did not increase | significantly increased | significantly increased | no cytotoxic effect | significantly increased | did not increase | two-fold increase | more than two-fold | significantly increased | –
b-FGF: recombinant human basic fibroblast growth factor, positive control | – | – | – | – | – | – | – | – | – | – | – | – | not significantly different
